Measured values: the NIST ThermoML archive (doi:10.1016/j.tca.2010.09.004)

Experiment: xn = mol fraction of the nth substance listed
Settings: 101 kPa, Liquid; for speed of sound: Sing-around technique in a fixed-path interferometer; for mass density: Vibrating tube method

CCCCNCCCC [dibutylamine] + CCC(C)=O
Settings	mass density [kg/m3]	speed of sound [m/s]
293.15 K, x2 = 0.0568	760.739	1258.2
293.15 K, x2 = 0.1152	762.014	1255
293.15 K, x2 = 0.1488	762.814	1252.9
293.15 K, x2 = 0.1968	764.024	1250.3
293.15 K, x2 = 0.2539	765.57	1247.2
293.15 K, x2 = 0.3056	767.093	1244.4
293.15 K, x2 = 0.3564	768.675	1241.6
293.15 K, x2 = 0.4105	770.501	1238.7
293.15 K, x2 = 0.4545	772.103	1236.4
293.15 K, x2 = 0.5005	773.872	1234
293.15 K, x2 = 0.5553	776.145	1231.1
293.15 K, x2 = 0.6022	778.277	1228.9
293.15 K, x2 = 0.6554	780.87	1225.8
293.15 K, x2 = 0.7036	783.444	1223.3
293.15 K, x2 = 0.7554	786.435	1220.8
293.15 K, x2 = 0.8022	789.404	1218.7
293.15 K, x2 = 0.8598	793.411	1216.3
293.15 K, x2 = 0.9001	796.544	1215
293.15 K, x2 = 0.9513	800.881	1213.5
298.15 K, x2 = 0.0681	756.775	1237.3
298.15 K, x2 = 0.1038	757.539	1235.3
298.15 K, x2 = 0.1625	758.95	1232
298.15 K, x2 = 0.2034	759.972	1229.9
298.15 K, x2 = 0.2603	761.475	1226.7
298.15 K, x2 = 0.3112	762.929	1223.8
298.15 K, x2 = 0.3523	764.175	1221.6
298.15 K, x2 = 0.3937	765.506	1219.4
298.15 K, x2 = 0.442	767.105	1216.6
298.15 K, x2 = 0.5018	769.396	1213.3
298.15 K, x2 = 0.5455	771.147	1211
298.15 K, x2 = 0.6036	773.698	1207.7
298.15 K, x2 = 0.6514	775.963	1205.2
298.15 K, x2 = 0.7003	778.472	1202.7
298.15 K, x2 = 0.7473	781.05	1200.3
298.15 K, x2 = 0.7978	784.142	1197.9
298.15 K, x2 = 0.8456	787.356	1195.9
298.15 K, x2 = 0.9022	791.581	1193.7
298.15 K, x2 = 0.9482	795.385	1192.3
303.15 K, x2 = 0.0621	752.548	1218.9
303.15 K, x2 = 0.1098	753.539	1216.1
303.15 K, x2 = 0.1666	754.759	1212.6
303.15 K, x2 = 0.2074	755.736	1210.3
303.15 K, x2 = 0.2593	757.08	1207.2
303.15 K, x2 = 0.309	758.454	1204.7
303.15 K, x2 = 0.3551	759.79	1202
303.15 K, x2 = 0.4045	761.368	1199.3
303.15 K, x2 = 0.4566	763.133	1196.4
303.15 K, x2 = 0.4957	764.551	1194.1
303.15 K, x2 = 0.5402	766.282	1191.6
303.15 K, x2 = 0.6005	768.842	1188.2
303.15 K, x2 = 0.6493	771.091	1185.6
303.15 K, x2 = 0.7004	773.646	1182.9
303.15 K, x2 = 0.7486	776.288	1180.5
303.15 K, x2 = 0.8005	779.398	1177.9
303.15 K, x2 = 0.8456	782.362	1175.9
303.15 K, x2 = 0.899	786.254	1173.7
303.15 K, x2 = 0.953	790.578	1172

CCCNCCC [dipropylamine] + CCC(C)=O
Settings	mass density [kg/m3]	speed of sound [m/s]
293.15 K, x2 = 0.0539	740.359	1208
293.15 K, x2 = 0.1021	742.443	1207.3
293.15 K, x2 = 0.1497	744.612	1206.7
293.15 K, x2 = 0.1982	746.936	1206.2
293.15 K, x2 = 0.2459	749.311	1205.7
293.15 K, x2 = 0.2983	752.034	1205.2
293.15 K, x2 = 0.3504	754.874	1204.9
293.15 K, x2 = 0.4012	757.757	1204.6
293.15 K, x2 = 0.4495	760.619	1204.3
293.15 K, x2 = 0.5068	764.2	1204.3
293.15 K, x2 = 0.5551	767.388	1204.4
293.15 K, x2 = 0.6014	770.563	1204.5
293.15 K, x2 = 0.6568	774.567	1204.8
293.15 K, x2 = 0.6968	777.603	1205.1
293.15 K, x2 = 0.7555	782.275	1205.9
293.15 K, x2 = 0.8009	786.111	1206.6
293.15 K, x2 = 0.8573	791.158	1207.8
293.15 K, x2 = 0.901	795.276	1208.9
293.15 K, x2 = 0.9479	799.908	1210.3
298.15 K, x2 = 0.0592	736.042	1186.6
298.15 K, x2 = 0.1027	737.924	1185.9
298.15 K, x2 = 0.1509	740.108	1185.2
298.15 K, x2 = 0.2001	742.441	1184.7
298.15 K, x2 = 0.2446	744.623	1184.2
298.15 K, x2 = 0.2958	747.263	1183.8
298.15 K, x2 = 0.3545	750.41	1183.3
298.15 K, x2 = 0.4003	753	1183.2
298.15 K, x2 = 0.4625	756.591	1182.5
298.15 K, x2 = 0.5006	759.04	1182.9
298.15 K, x2 = 0.5539	762.376	1182.7
298.15 K, x2 = 0.5992	765.587	1183.2
298.15 K, x2 = 0.6474	769.011	1183.4
298.15 K, x2 = 0.6987	772.61	1183.5
298.15 K, x2 = 0.7531	777.151	1184.6
298.15 K, x2 = 0.8048	781.469	1185.4
298.15 K, x2 = 0.8557	785.991	1186.6
298.15 K, x2 = 0.9041	790.463	1188
298.15 K, x2 = 0.9471	794.714	1189.1
303.15 K, x2 = 0.0658	731.678	1165.9
303.15 K, x2 = 0.0988	733.107	1165.4
303.15 K, x2 = 0.1106	733.626	1165.2
303.15 K, x2 = 0.2146	738.432	1164.1
303.15 K, x2 = 0.2595	740.626	1163.5
303.15 K, x2 = 0.3098	743.197	1163.1
303.15 K, x2 = 0.363	746.053	1162.8
303.15 K, x2 = 0.4131	748.859	1162.5
303.15 K, x2 = 0.457	751.472	1162.4
303.15 K, x2 = 0.5154	755.069	1162.3
303.15 K, x2 = 0.5554	757.601	1162.4
303.15 K, x2 = 0.6081	761.161	1162.6
303.15 K, x2 = 0.6657	765.248	1163
303.15 K, x2 = 0.7041	768.129	1163.5
303.15 K, x2 = 0.7517	771.855	1164
303.15 K, x2 = 0.8032	776.094	1164.8
303.15 K, x2 = 0.8513	780.312	1166.1
303.15 K, x2 = 0.8958	784.355	1167
303.15 K, x2 = 0.9448	789.085	1168.6

CCN(CC)CC [triethylamine] + CCC(C)=O
Settings	mass density [kg/m3]	speed of sound [m/s]
293.15 K, x2 = 0.0684	730.666	1134.5
293.15 K, x2 = 0.1169	733.08	1136
293.15 K, x2 = 0.1627	735.417	1138
293.15 K, x2 = 0.2218	738.705	1140.6
293.15 K, x2 = 0.2686	741.43	1143
293.15 K, x2 = 0.3141	744.214	1145.5
293.15 K, x2 = 0.3549	746.818	1147.9
293.15 K, x2 = 0.4154	750.867	1151.7
293.15 K, x2 = 0.4636	754.264	1155
293.15 K, x2 = 0.5054	757.343	1158.2
293.15 K, x2 = 0.5572	761.332	1162.3
293.15 K, x2 = 0.61	765.576	1166.7
293.15 K, x2 = 0.6519	769.122	1170.6
293.15 K, x2 = 0.7051	773.808	1175.7
293.15 K, x2 = 0.7603	778.962	1181.4
293.15 K, x2 = 0.8057	783.447	1186.5
293.15 K, x2 = 0.8586	788.929	1192.8
293.15 K, x2 = 0.9019	793.679	1198.3
293.15 K, x2 = 0.9451	798.586	1204.1
298.15 K, x2 = 0.0709	725.999	1112.7
298.15 K, x2 = 0.1149	728.152	1114.2
298.15 K, x2 = 0.158	730.378	1115.9
298.15 K, x2 = 0.2181	733.668	1118.5
298.15 K, x2 = 0.261	736.151	1120.7
298.15 K, x2 = 0.3203	739.738	1123.9
298.15 K, x2 = 0.3605	742.292	1126.3
298.15 K, x2 = 0.4159	745.987	1129.9
298.15 K, x2 = 0.4607	749.113	1133
298.15 K, x2 = 0.5106	752.756	1136.7
298.15 K, x2 = 0.5701	757.323	1141.5
298.15 K, x2 = 0.6039	760.048	1144.5
298.15 K, x2 = 0.66	764.735	1149.5
298.15 K, x2 = 0.7122	769.362	1154.6
298.15 K, x2 = 0.7604	773.883	1159.8
298.15 K, x2 = 0.8023	777.983	1164.4
298.15 K, x2 = 0.8437	782.252	1169.6
298.15 K, x2 = 0.8921	787.444	1175.7
298.15 K, x2 = 0.9456	793.453	1182.8
303.15 K, x2 = 0.0686	721.221	1092.2
303.15 K, x2 = 0.1149	723.47	1093.7
303.15 K, x2 = 0.1643	726.011	1095.6
303.15 K, x2 = 0.2101	728.487	1097.6
303.15 K, x2 = 0.2639	731.565	1100.3
303.15 K, x2 = 0.3102	734.326	1102.7
303.15 K, x2 = 0.3502	736.816	1105.1
303.15 K, x2 = 0.3869	739.189	1107.4
303.15 K, x2 = 0.45	743.482	1111.7
303.15 K, x2 = 0.5081	747.667	1116
303.15 K, x2 = 0.5652	752.023	1120.6
303.15 K, x2 = 0.6051	755.192	1124
303.15 K, x2 = 0.6561	759.446	1128.7
303.15 K, x2 = 0.7087	764.061	1134
303.15 K, x2 = 0.763	769.188	1140
303.15 K, x2 = 0.7945	772.2	1143.5
303.15 K, x2 = 0.8542	778.238	1150.5
303.15 K, x2 = 0.8987	783.012	1156.3
303.15 K, x2 = 0.95	788.818	1163.4
